The assay has as its target T1, Human M4 receptors (Homo sapiens, UniProt P08173).
T1 construct: expressed in transfected cells; host or cells: HEK293 cells with Promega GloSensor cAMP technology, stably expressing hM4
T1 sequence (P08173 1-479): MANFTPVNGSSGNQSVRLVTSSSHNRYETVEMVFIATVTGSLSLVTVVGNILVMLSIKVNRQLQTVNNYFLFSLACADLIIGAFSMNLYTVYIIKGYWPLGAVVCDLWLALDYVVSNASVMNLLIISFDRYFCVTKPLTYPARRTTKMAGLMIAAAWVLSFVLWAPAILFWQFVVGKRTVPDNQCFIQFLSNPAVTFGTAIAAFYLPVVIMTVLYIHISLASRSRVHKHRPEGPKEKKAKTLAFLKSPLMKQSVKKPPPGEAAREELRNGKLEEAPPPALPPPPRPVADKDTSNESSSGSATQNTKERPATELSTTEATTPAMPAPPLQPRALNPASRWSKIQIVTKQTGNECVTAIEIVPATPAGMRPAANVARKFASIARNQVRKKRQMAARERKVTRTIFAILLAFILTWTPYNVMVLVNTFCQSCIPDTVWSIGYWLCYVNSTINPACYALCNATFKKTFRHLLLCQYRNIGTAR
Description: M4 PAM cAMP assay (GloSensor). It is filed as cell-based. The conditions noted are these: for Emax: HEK293, read-out: M4 glosensor EC50 Mean Asymptote Maximum (%); for EC50: HEK293 GloSensor cells expressing hM4, with EC20 acetylcholine and isoproterenol, geometric mean of 2-4 determinations unless otherwise indicated. On the technique in general: Cyclic AMP is a second messenger, typically raised through Gs and lowered through Gi signalling.

In general, EC50 refers to the concentration needed to bring the measured effect to its halfway point. Low readings indicate greater potency, high ones weaker potency. For the compound `COc1ccc(C#N)cc1N1CC(CC(=O)N2Cc3nc(C)cc(C)c3C2)C1` [Example 69, 3-{3-[2-(2,4-dimethyl-5,7-dihydro-6H-pyrrolo[3,4-b]pyridin-6-yl)-2-oxoethyl]azetidin-1-yl}-4-methoxybenzonitrile], the Emax was 41.5% and it took 1.36 µM to reach a half-maximal effect (EC50).
The corresponding values for `Cc1cc(C)c2c(n1)CN(C(=O)CC1CN(c3ccc(C(=O)N(C)C)cc3)C1)C2` [Example 70, 4-{3-[2-(2,4-dimethyl-5,7-dihydro-6H-pyrrolo[3,4-b]pyridin-6-yl)-2-oxoethyl]azetidin-1-yl}-N,N-dimethylbenzamide] are 95% and 0.184 µM.
As to `Cc1cc(C)c2c(n1)CN(C(=O)CC1CN(c3ccc(CO)cc3)C1)C2` [Example 71, 1-(2,4-dimethyl-5,7-dihydro-6H-pyrrolo[3,4-b]pyridin-6-yl)-2-{1-[4-(hydroxymethyl)phenyl]azetidin-3-yl}ethanone], the Emax was determined as 90.5% and the EC50 stood at 0.195 µM.
As to `Cc1cc(C)c2c(n1)CN(C(=O)CC1CN(c3ccc(C4CC4)cc3)C1)C2` [Example 72, 2-[1-(4-cyclopropylphenyl)azetidin-3-yl]-1-(2,4-dimethyl-5,7-dihydro-6H-pyrrolo[3,4-b]pyridin-6-yl)ethanone], the Emax came to 90.6% and the 50% effective concentration (EC50) is 0.537 µM.
Turning to `Cc1cc(C)c2c(n1)CN(C(=O)CC1CN(c3ccc(C(O)C4CC4)cc3)C1)C2` (centres unmarked) [Example 73, 2-(1-{4-[cyclopropyl(hydroxy)methyl]phenyl}azetidin-3-yl)-1-(2,4-dimethyl-5,7-dihydro-6H-pyrrolo[3,4-b]pyridin-6-yl)ethanone], the Emax worked out at 95.3% and the EC50 was 0.0905 µM.
With `COc1ccc(N2CC(CC(=O)N3Cc4nc(C)cc(C)c4C3)C2)cc1CC#N` [Example 74, (5-{3-[2-(2,4-dimethyl-5,7-dihydro-6H-pyrrolo[3,4-b]pyridin-6-yl)-2-oxoethyl]azetidin-1-yl}-2-methoxyphenyl)acetonitrile], the Emax was 84.4% and a half-maximal response (EC50) required 0.46 µM.
Take `CNC(=O)c1ccc(N2CC(CC(=O)N3Cc4nc(C)cc(C)c4C3)C2)cc1` [Example 75, 4-{3-[2-(2,4-dimethyl-5,7-dihydro-6H-pyrrolo[3,4-b]pyridin-6-yl)-2-oxoethyl]azetidin-1-yl}-N-methylbenzamide]: the Emax came to 89.2% and a half-maximal effect (EC50) was put at 0.105 µM.

Source of the values: US11905284B2, “5,7-dihydro-pyrrolo-pyridine derivatives” (PFIZER INC., priority 2016, dated 2024).
